Laboratory results published in patent US8445491B2, “Wnt protein signalling inhibitors” (The Board of Regents of the University of Texas System, priority 2008, dated 2013).

How the values were obtained:
[1] = tested on: lung cancer and colorectal cancer cells; test: cancer cell growth study (Cell Titer Glo); type: cell-based; conditions: 6 days
Protocol: FIGS. 7A-D. Chemical inhibition of Wnt-mediated cellular responses in cancer. FIG. 7A. Growth-inhibitory effects of IWR and IWP compounds on cancerous cells. Cells derived from either lung or colon cancer, with known molecular changes that result in aberrant Wnt pathway response, were treated with increasing concentrations of either IWR-4 or IWP-1 for 6 days with medium and compounds replenished daily. Cell viability was measured using Cell-Titer Glo assays. FIG. 7B. Biochemical changes of Wnt pathway components in cancerous cells treated with either IWR or IWP compounds. Lysates from H460, or DLD-1 cells were treated with IWR or IWP and Western blotted for either Dvl2, Axin2, Axin1, or Actin. Whereas both cell lines express […], Axin2 expression is absent in H460 cells. FIG. 7C. Genetic evidence for non-β-catenin dependent Wnt-mediated signalling in cancerous cells. […]
In experiments involving IWR and IWP treatments, cancer cells were seeded into a 24 well format (2.5K cells/well) in the presence of the noted Wnt pathway inhibitors (0.5% DMSO final) Media and compound changed every 24 hours for 5 days. On day 6, ATP levels were quantitated via cell titer glo assay (Promega). […] ATP levels were measured 120 hrs later via Cell Titer Glo assay (Promega).

[2] = tested on: Wnt/β-catenin pathway response induced by Wnt1, Wnt2, or Wnt3a; test: STF reporter, pathway activity induced by Wnt1, Wnt2 or Wnt3a; type: cell-based; conditions: FL normalized to RL
Protocol: FIGS. 9A-C. […] FIG. 9A. Summary of results relating to IWR and IWP compounds from the screening process. Wnt pathway tests were performed in either cells responding to autonomously-produced Wnt protein (L-Wnt-STF cells) or exogenously provided Wnt in conditioned medium (HEK293 cells). FIG. 9B. […] Left: schematic of Wnt-Gaussia luciferase (Wnt-GL) fusion protein used to monitor levels of secreted Wnt protein in the cell medium. Right: levels of Wnt-GL but not GL secreted from cells treated with IWP compounds are decreased as compared to cells treated with carrier. The Wnt-GL protein elicits levels of Wnt/β-catenin pathway response similar to that of Wnt3a protein (data not shown). FIG. 9C. […] FL activity was normalized to control RL activity as before.

[3] = tested on: caudal fin regeneration in zebrafish; test: caudal fin regeneration assay in zebrafish; type: in vivo; conditions: for caudal fin regeneration after mechanical resection: zebrafish, compound in water 10 μM, 4 days
Protocol: FIG. 25. […] Arrows indicate the points of resection.
(§1) 6 month-old zebrafish were incubated 8 or 14 days at 28.5° C. in aquarium water supplemented with 10 μM IWR or in 0.1% DMSO as a control. Fish were fed standard diet, and solutions were changed daily. At the end of the exposure, zebrafish were incubated in 1 mM BrdU in aquarium water for 2 hrs at room temperature, then washed several times in aquarium water, anesthetized with 0.1% Tricaine, and fixed in 4% paraformaldehyde for 48 hrs at 4° C. The intestine was dissected out, dehydrated, paraffin embedded and sectioned at […] intervals. Sections were stained with Hematoxylin and Eosin or processed for BrdU immunohistochemistry as described (Shepard et al., 2005). Sections from 8 animals each from IWR and DMSO groups were independently scored by four blinded observers. The total number of intestinal folds and total number of BrdU-positive nuclei in the mid and distal sections of the intestine were counted from each section. For caudal fin regeneration assays, zebrafish, 3-6 months of age, were anaesthetized in 0.2% Tricaine and half of the fin was resected using a razor blade to remove Amputees were reared at 31° C. in tanks containing either 300 ml of water with DMSO or IWR (10 μM). Water and compounds were replenished daily for a total assay period of 4 days.

Wnt3A = Wnt3A phase separation (lipidation) assay in HEK 293 cells; type: cell-based, human; conditions: detergent solubility fractionation assay
Protocol: Biochemical studies involving L-Wnt-STF or DLD-1 cells were performed in either 48- or 6-well format with IWR (10 μM) or IWP (5 μM) compounds and/or cycloheximide (100 μM) in a 48 hr assay period. Targeting of APC using RNAi in L-cells was achieved by transfecting cells with SMARTPool APC siRNAs (50 nM; Dharmacon). E-cadherin depletion studies were performed at 4° C. using DLD-1 cells lysed in PBS/1% NP-40/protease inhibitors. For Wnt3A phase separation assays, murine Porcupine (C isoform) and human Wnt3A-myc were transfected into HEK 293 cells (6 well format, 400K cells/well) as appropriate using Effectene transfection reagent (QIAGEN). After 48 hrs of incubation, cells were lysed for 15 min, RT with PL buffer (distilled water, 10 mM tris-HCl, 150 mM NaCl)/1% TritionX-114. Lysate was briefly chilled on ice, pelleted for 10 min 4° C., and the supernatant combined with an equal volume of PL buffer/3.5% TX-114. Solutions were rotated for 15 min at 4° C., placed at 37° C. for 5 mM followed by an additional centrifugation for 5 mM at 2000 g, RT. Distinct phases were collected and combined with PL buffer to a total volume of 1 mL Samples were chilled on ice, ConA sepharose (GE Healthcare) added, and samples rotated for 2 hrs at 4° C. Beads washed 2× with PL buffer, and a Western blot performed with eluted proteins using an anti-c-myc antibody. […]

Wnt/β-catenin pathway = test: Western blot of Wnt/β-catenin pathway markers (LRP6 and Dvl2 phosphorylation, β-catenin accumulation) in L-Wnt-STF cells; type: cell-based, mouse; conditions: L-Wnt cells
Excerpt: FIG. 3. Biochemical evidence for Wnt/β-catenin pathway inhibition by IWR and IWP compounds. […] Cellular lysates were subjected to Western blot analysis to determine levels of LRP6 and Dvl2 phosphorylation, and β-catenin accumulation, all biochemical events associated with Wnt/β-catenin pathway activity. Predictably, IWPs blocked all three biochemical events, whereas IWRs appear to block β-catenin accumulation without affecting LRP6 and Dv12 phosphorylation. Kif3A and tubulin serve as loading controls.
(§2) Biochemical studies involving L-Wnt-STF or DLD-1 cells were performed in either 48- or 6-well format with IWR (10 μM) or IWP (5 μM) compounds and/or cycloheximide (100 μM) in a 48 hr assay period. Targeting of APC using RNAi in L-cells was achieved by transfecting cells with SMARTPool APC siRNAs (50 nM; Dharmacon). E-cadherin depletion studies were performed at 4° C. using DLD-1 cells lysed in PBS/1% NP-40/protease inhibitors. For Wnt3A phase separation assays, murine Porcupine (C isoform) and human Wnt3A-myc were transfected into HEK 293 cells (6 well format, 400K cells/well) as appropriate using Effectene transfection reagent (QIAGEN). After 48 hrs of incubation, cells were lysed for 15 min, RT with PL buffer (distilled water, 10 mM tris-HCl, 150 mM NaCl)/1% TritionX-114. […]

[4] = tested on: zebrafish gastrointestinal (GI) tract; test: homeostatic renewal of the zebrafish GI tract (BrdU incorporation, histology); type: in vivo
Protocol: as §1

[5] = tested on: Axin2 and β-catenin in DLD-1 cells; test: biochemical studies of destruction complex components in DLD-1 cells (Western blot, E-cadherin depletion, cycloheximide); type: cell-based
Excerpt: (§3) FIGS. 5A-H. Stabilization of the Axin2 destruction complex by IWR compounds. FIG. 5A. IWR compounds block β-catenin accumulation induced by loss of APC tumor suppressor. […] FIG. 5B. IWRs block aberrant Wnt/β-catenin pathway activity in the colorectal cancer (CRC) cells. Aberrant Wnt/β-catenin pathway activity in DLD-1 cells, CRC cells which harbor a loss-of-function mutation in APC, is abrogated by IWR compounds. Pathway activity was monitored using the STF reporter and normalized to RL control reporter as before. FIG. 5C. IWRs induce accumulation of Axin2 protein. Western blot analysis of proteins involved in regulating β-catenin levels in DLD-1 cells reveal accumulation of Axin2 protein in cells treated with IWR compounds with little change in expression levels of other pathway components. Note that the APC protein is truncated in these cells. FIG. 5D. Levels of β-catenin in CRC cells available for Wnt response are decreased in the presence of IWR compounds. […] FIG. 5E. IWR stabilizes Axin2 protein. Rapid destruction of Axin2 protein is apparent in DLD-1 cells treated with the protein synthesis inhibitor cycloheximide. […] FIG. 5F. […] FIG. 5G. […] FIG. 5H. A proposed model of IWR action. Addition of IWR to cells induces stabilization of Axin2 protein with consequential increase in β-catenin destruction.
as §2, with “Targeting” for “Biochemical studies involving L-Wnt-STF or DLD-1 cells were performed in either 48- or 6-well format with IWR (10 μM) or IWP (5 μM) compounds and/or cycloheximide (100 μM) in a 48 hr assay period. Targeting”, “TritionX-114. Lysate was briefly chilled on ice, pelleted for 10 min 4° C., and the supernatant combined with an equal volume of PL buffer/3.5% TX-114.” for “TritionX-114.”

β-catenin = β-catenin accumulation in L-cells treated with APC siRNAs; type: cell-based; conditions: mouse L-cells treated with APC siRNAs
Excerpt: as §3, with “destruction. […]” for “destruction.”

COc1ccc(-n2nc(C(=O)NCC(=O)Nc3nc4ccc(OC)cc4s3)c3ccccc3c2=O)cc1 [IWP-1]
inhibition of cancerous cell growth [1]: consistently more effective than IWR-4

Cc1ccc2nc(NC(=O)CSc3nc4c(c(=O)n3-c3ccccc3)SCC4)sc2c1 [IWP-2]
pathway activity induced by Wnt1, Wnt2, or Wnt3a [2]: decreased
caudal fin regeneration after mechanical resection [3]: failed to do so
levels of lipidated Wnt3A (Wnt3A): decreased

O=C(Nc1cccc2cccnc12)c1ccc(N2C(=O)[C@@H]3[C@H](C2=O)[C@@H]2C=C[C@H]3C2)cc1 [IWR-1]
pathway activity induced by Wnt1, Wnt2, or Wnt3a [2]: decreased
fin regeneration after removal of the chemical ([3]; zebrafish bred 7 d in water containing compound, then removal): able to regenerate tissue to nearly normal levels after chemical removal
caudal fin regeneration after mechanical resection [3]: suppressed fin regeneration
accumulation of β-catenin (Wnt/β-catenin pathway): inhibit accumulation of β-catenin
adverse signs in treated fish ([4]; zebrafish treated for periods longer than 4 days): lethargy and decreased appetite
BrdU-labeled cells at the base of intestinal folds ([4]; zebrafish, 10 μM in water, 8 days): decreased number
levels of β-catenin not bound to E-cadherin ([5]; DLD-1 cells): decreased
Axin2 protein turn-over ([5]; DLD-1 cells with cycloheximide): little turn-over of Axin2
expression of Wnt/β-catenin target gene Axin2 ([5]; DLD-1 cells, exposure for 2 h): decrease in the expression of Axing
β-catenin accumulation induced by loss of APC (β-catenin): can be blocked
